{"source": "patent US8338624B2", "about": "“Isoflavone derivatives and uses thereof” (Yeda Research and Development Co., Ltd., priority 2007, dated 2012)", "key": {"MLS ovarian cancer cells": {"tested_on": "MLS ovarian cancer cells", "assay": "DNA synthesis by [3H]-thymidine incorporation, MLS cells", "format": "cell-based, human", "experimental": "(§1) Cells were cultured in MEM supplemented with 10% FCS and antibiotics. Cells were grown to subconfluence and then treated with various hormones or agents as described by Somjen et al. (Somjen et al., 1998). The cells were characterized in terms of expression of mRNAs for estrogen […] by real time PCR, and the results are summarized in Table 1. N87, 320DM and H295R cells expressed mRNAs for both ERs. The ratio of ERα to ERβ was 1:8.5, 1:30 and 1:1.8 in N87, 320DM and H295R cells, respectively. Ovarian A2780 and prostate C4-24 cells expressed mainly mRNA for ERβ, and the ratio of ERβ to ERα was 300:1 and 70:1, respectively. MLS ovarian cells expressed mRNA only for ERβ. The ratio of ERα to ERβ in T47D cells has been reported to be 9:1.\n(§2) [^3H]-Thymidine incorporation into DNA was used for the assessment of the various effects (proliferative or inhibitory) of various isoflavones, isoflavone derivatives and known cytotoxic drugs in the above-mentioned cells. Cells were grown until subconfluence using conditions described in Somjen et al. (Somjen et al., 1998) and then treated with various agents for 24 or 48 h as indicated. At the end of incubation, [^3H]-thymidine was added for two hours. Cells were then treated with 10% ice-cold trichloroacetic (TCA) for 5 min and washed twice with 5% TCA and then with cold ethanol. The cellular layer was dissolved in 0.3 ml of 0.3 M NaOH, aliquots were taken for counting radioactivity, and [^3H]-thymidine incorporation into DNA was calculated."}, "[1]": {"tested_on": "A2780 ovarian cancer cells", "assay": "DNA synthesis by [3H]-thymidine incorporation, A2780 cells", "format": "cell-based, human", "conditions": "compound at 3 μM", "experimental": "as §1, §2"}, "[2]": {"tested_on": "EKVX non small lung cancer cell line", "assay": "NCI In Vitro Cell Line Screening, EKVX", "format": "cell-based", "conditions": "Homo sapiens, read-out: log10 GI50 (converted)", "experimental": "An in vitro cell line screen for the t-boc derivative of daidzein (compound 9) was performed at the NCI/NIH US utilizing the In Vitro Cell Line Screening Project (IVCLSP) (National Cancer Institute, Developmental Therapeutics Program, Information Technology Branch, Rockville, Md., USA).\nThe operation of this screen utilized 60 different human tumor cell lines, representing leukemia, melanoma and cancers of the lung, colon, brain, ovary, breast, prostate, and kidney. […] Using these algorithms, it is possible to assign a putative mechanism of action to a test compound, or to determine that the response pattern is unique and not similar to that of any of the standard prototype compounds included in the NCI database.\nTo facilitate analysis of the data, three endpoints were calculated for each cell line: The GI50 value, which is the negative log10 of the concentration required to inhibit the growth of that cell line by 50% (relative to untreated cells); TGI, the negative log10 of minimum concentration that causes total growth inhibition; and LC50, which reflects the negative log10 concentration needed to kill 50% of the cells. A Mean Graph was used as a way of easily visualizing the results from all 60 cell lines at once. To generate this graph, the mean of GI50 values across all 60 cell lines was calculated. […]"}, "[3]": {"tested_on": "Human umbilical vascular smooth muscle cells (VSMC)", "assay": "DNA synthesis by [3H]-thymidine incorporation, normal VSMC", "format": "cell-based", "conditions": "compound at 3 μM", "experimental": "Human umbilical vascular smooth muscle cells (VSMC) sensitive to estrogen, were grown in culture as described above, and used only at passages 1-3, when expression of smooth muscle actin was clearly demonstrable (Somjen et al. 2000). The ratio of the expression of mRNA for ERα to ERβ was 2.7:1.\nas §2"}}}
{"smiles": "CC(C)(C)OC(=O)NCCCCCCNC(=O)COc1ccc2c(=O)c(-c3ccc(O)cc3)coc2c1", "note": "[Compound 9]", "values": [{"measurement": "incubation time at which plateau of inhibition of DNA synthesis was reached", "setting": "MLS ovarian cancer cells", "value": 72, "unit": "h"}, {"measurement": "DNA synthesis, ratio experimental/control (E/C)", "setting": "MLS ovarian cancer cells; 9 (0.3 μM) + E2 30 nM", "value": "0.96 ± 0.24"}, {"measurement": "DNA synthesis, ratio experimental/control (E/C)", "setting": "MLS ovarian cancer cells; 9 (0.3 μM) + E2 0.3 μM", "value": "2.39 ± 0.07"}, {"measurement": "DNA synthesis (% of control)", "setting": "MLS ovarian cancer cells; 9 at 0.3 μM + 25 μM Z-VADFK", "value": 132, "unit": "%"}, {"measurement": "DNA synthesis, ratio experimental/control (E/C)", "setting": "MLS ovarian cancer cells; 9 at 0.3 μM + Z-VADFK (25 μM)", "value": "1.32 ± 0.26"}, {"measurement": "suppression of the proliferative effect of estradiol", "setting": "MLS ovarian cancer cells; 9 at 0.3 μM + estradiol 0.3 μM", "value": "could not suppress its proliferative effect"}, {"measurement": "DNA synthesis, ratio experimental/control (E/C)", "setting": "MLS ovarian cancer cells; 9 at 0.3 μM alone (Table 3)", "value": "0.61 ± 0.10"}, {"measurement": "DNA synthesis, ratio experimental/control (E/C)", "setting": "MLS ovarian cancer cells; 9 at 0.3 μM alone (Table 4)", "value": "0.74 ± 0.11"}, {"measurement": "DNA synthesis, ratio experimental/control (E/C)", "setting": "MLS ovarian cancer cells; 9 at 3 μM + Z-VADFK 25 μM", "value": "0.76 ± 0.16"}, {"measurement": "effect of apoptosis inhibitor on inhibition by 9", "setting": "MLS ovarian cancer cells; 9 at 3 μM + Z-VADFK 25 μM", "value": "capable of reversing the inhibitory effect of 9 on DNA synthesis"}, {"measurement": "DNA synthesis, ratio experimental/control (E/C)", "setting": "MLS ovarian cancer cells; 9 at 3 μM alone (Table 4)", "value": "0.44 ± 0.14"}, {"measurement": "effect on [3H]-thymidine incorporation into DNA", "setting": "MLS ovarian cancer cells; 15 to 6000 nmol/l", "value": "dose dependent decreases"}, {"measurement": "inhibition at 0.3 µM", "setting": "MLS ovarian cancer cells; Homo sapiens, 9 at 0.3 μM alone", "value": 26, "unit": "%"}, {"measurement": "inhibition at 3 µM", "setting": "MLS ovarian cancer cells; Homo sapiens, 9 at 3 μM alone", "value": 56, "unit": "%"}, {"measurement": "DNA synthesis, ratio experimental/control (E/C)", "setting": "MLS ovarian cancer cells; compound at 3 μM", "value": "0.03 ± 0.07"}, {"measurement": "DNA synthesis (% of control)", "setting": "MLS ovarian cancer cells; estradiol 30 nM + 0.3 μM compound 9", "value": 96, "unit": "%"}, {"measurement": "DNA synthesis, ratio experimental/control (E/C)", "setting": "[1]", "value": "0.1 ± 0.15"}, {"measurement": "GI50", "setting": "[2]", "value": 1950, "unit": "nM"}, {"measurement": "DNA synthesis, ratio experimental/control (E/C)", "setting": "[3]", "value": "0.73 ± 0.13"}]}
